Assay results published in patent publication US8906852B2 (MethylGene Inc., priority 2010, dated 2014).

Biological target: T1, VEGFR/KDR (Homo sapiens, UniProt P35968)
T1 construct: made in house; host or cells: Sf9 cells (Spodoptera frugiperda), baculovirus
Experiment: VEGFR/KDR kinase inhibition, DELFIA assay
Type: biochemical
Conditions: ATP 0.6 uM (2x Km), enzyme 5 nM
Experimental: Inhibition of VEGFR/KDR is measured in a DELFIA™ assay (Perkin Elmer). The substrate poly(Glu4, Tyr) is immobilized onto black high-binding polystyrene 96-well plates. The coated plates are washed and stored at 4° C. During the assay, the enzyme is pre-incubated with inhibitor and Mg-ATP on ice in polypropylene 96-well plates for 4 minutes, and then transferred to the coated plates. The subsequent kinase reaction takes place at 30° C. for 10-30 minutes. ATP concentrations in the assay are 0.6 uM for VEGFR/KDR (2× the Km). Enzyme concentration is 5 nM. After incubation, the kinase reactions are quenched with EDTA and the plates are washed. Phosphorylated product is detected by incubation with Europium-labeled anti-phosphotyrosine MoAb. After washing the plates, bound MoAb is detected by time-resolved fluorescence in a Gemini SpectraMax reader (Molecular Devices). Compounds are evaluated over a range of concentrations, and IC50 values (concentration of compounds giving 50% inhibition of enzymatic activity) are determined.

T1 sequence (P35968 806-1356): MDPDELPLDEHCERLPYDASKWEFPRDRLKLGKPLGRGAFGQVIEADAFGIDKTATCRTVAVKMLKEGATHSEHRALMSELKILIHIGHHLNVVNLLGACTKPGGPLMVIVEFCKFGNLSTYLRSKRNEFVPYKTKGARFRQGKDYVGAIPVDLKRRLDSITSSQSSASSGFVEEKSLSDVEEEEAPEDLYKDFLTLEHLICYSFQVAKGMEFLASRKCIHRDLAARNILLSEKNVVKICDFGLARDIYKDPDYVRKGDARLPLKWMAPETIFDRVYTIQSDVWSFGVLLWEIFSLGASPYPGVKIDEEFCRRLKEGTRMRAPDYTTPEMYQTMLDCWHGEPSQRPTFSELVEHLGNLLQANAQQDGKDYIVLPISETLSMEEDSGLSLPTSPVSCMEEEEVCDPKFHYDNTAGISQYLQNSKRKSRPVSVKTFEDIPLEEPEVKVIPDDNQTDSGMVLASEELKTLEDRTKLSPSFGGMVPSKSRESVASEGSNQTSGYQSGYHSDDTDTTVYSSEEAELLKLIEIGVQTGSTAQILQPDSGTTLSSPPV

Compound	IC50 [nM]
O=C(Nc1ccc(Oc2ccnc3cc(-c4ccc(C(=O)NCCN5CCOCC5)cn4)sc23)c(F)c1)NC1CC1 [Compound 235, 6-(7-(4-(3-cyclopropylureido)-2-fluorophenoxy)thieno[3,2-b]pyridin-yl)-N-(2-morpholinoethyl)nicotinamide]	< 50
O=C(Nc1ccc(Oc2ccnc3cc(-c4ccc(CNc5cccc(OCCN6CCOCC6)c5)cn4)sc23)c(F)c1)NC1CC1 [Compound 341, 1-cyclopropyl-3-(3-fluoro-4-(2-(5-((3-(2-morpholinoethoxy)phenylamino)methyl)pyridin-2-yl)thieno[3,2-b]pyridin-7-yloxy)phenyl)urea]	< 50
CC(=O)OCC(=O)NC1CCN(Cc2ccc(-c3cc4nccc(Oc5ccc(NC(=O)NC6CC6)cc5F)c4s3)nc2)CC1 [Compound 345]	< 50
O=C(Nc1ccc(Oc2ccnc3cc(-c4ccc(CN5CCN(Cc6cccnc6)CC5)cn4)sc23)c(F)c1)NC1CC1 [Compound 324, 1-cyclopropyl-3-(3-fluoro-4-(2-(5-((4-(pyridin-3-ylmethyl)piperazin-1-yl)methyl)pyridin-2-yl)thieno[3,2-b]pyridin-7-yloxy)phenyl)urea]	< 50
Cc1cc(NCc2ccc(-c3cc4nccc(Oc5ccc(NC(=O)NC6CC6)cc5F)c4s3)nc2)n[nH]1 [Compound 333, 1-Cyclopropyl-3-(3-fluoro-4-(2-(5-((5-methyl-1H-pyrazol-3-ylamino)methyl)pyridin-2-yl)thieno[3,2-b]pyridin-7-yloxy)phenyl)urea]	< 50
O=C(Nc1ccc(Oc2ccnc3cc(-c4ccc(CN5CC6CNCC6C5)cn4)sc23)c(F)c1)NC1CC1 (stereo not shown) [Compound 311, 1-cyclopropyl-3-(3-fluoro-4-(2-(5-((hexahydropyrrolo[3,4-c]pyrrol-2(1H)-yl)methyl)pyridin-2-yl)thieno[3,2-b]pyridin-7-yloxy)phenyl)urea]	< 50
O=C(Nc1ccc(Oc2ccnc3cc(-c4ccc(CCN5CCOCC5)cn4)sc23)c(F)c1)NC1CC1 [Compound 178, 1-cyclopropyl-3-(3-fluoro-4-(2-(5-(2-morpholinoethyl)pyridin-2-yl)thieno[3,2-b]pyridin-7-yloxy)phenyl)urea]	< 50
COCCOCCOCCOCCN(C)Cc1ccc(-c2cc3nccc(Oc4ccc(NC(=O)NC5CC5)cc4F)c3s2)nc1 [Compound 180, 1-cyclopropyl-3-(3-fluoro-4-(2-(5-(2-methyl-5,8,11,14-tetraoxa-2-azapentadecyl)pyridin-2-yl)thieno[3,2-b]pyridin-7-yloxy)phenyl)urea]	< 50
COCCNCc1ccc(-c2cc3nccc(Oc4ccc(NC(CC(=O)N(C)c5ccccc5)C(F)(F)F)cc4F)c3s2)nc1 (stereo not shown) [Compound 21, 4,4,4-trifluoro-3-(3-fluoro-4-(2-(5-((2-methoxyethylamino)methyl)pyridin-2-yl)thieno[3,2-b]pyridin-7-yloxy)phenylamino)-N-methyl-N-phenylbutanamide]	< 50
NC(CCCCNCc1ccc(-c2cc3nccc(Oc4ccc(NC(=O)NC5CC5)c(F)c4F)c3s2)nc1)C(=O)O (stereo not shown) [Compound 170, 2-amino-6-((6-(7-(4-(3-cyclopropylureido)-2,3-difluorophenoxy)thieno[3,2-b]pyridin-2-1)pyridin-3-yl)methylamino)hexanoic acid]	< 50
O=C(O)CCC(=O)N1CC=C(c2cc3nccc(Oc4ccc(NC(=O)NC5CC5)cc4F)c3s2)CC1 [Compound 273, 4-(4-(7-(4-(3-cyclopropylureido)-2-fluorophenoxy)thieno[3,2-b]pyridin-2-yl)-5,6-dihydropyridin-1(2H)-yl)-4-oxobutanoic acid]	≥ 250
CN(C)[C@H]1CCN(C(=O)Cn2cc(-c3cc4nccc(Oc5ccc(NC(=O)NC6CC6)cc5F)c4s3)nn2)C1 [Compound 376]	< 50
N-(4-(7-(4-(3-cyclopropylureido)-2-fluorophenoxy)thieno[3,2-b]pyridin-2-yl)benzyl)-2-(2-methoxyethoxy)-N-(2-methoxyethyl)acetamide [Compound 115]	< 50
COCCN(Cc1ccc(-c2cc3nccc(Oc4ccc(NC(=O)NC5CC5)cc4F)c3s2)nc1)C(=O)[C@@H](N)C(C)(C)C [Compound 88, (S)-2-amino-N-((6-(7-(4-(3-cyclopropylureido)-2-fluorophenoxy)thieno[3,2-b]pyridin-2-yl)pyridin-3-yl)methyl)-N-(2-methoxyethyl)-3,3-dimethylbutanamide]	< 50
CCOC(=O)CC1CCN(Cc2ccc(-c3cc4nccc(Oc5ccc(NC(=O)NC6CC6)cc5F)c4s3)nc2)CC1 [Compound 59, ethyl 2-(1-((6-(7-(4-(3-cyclopropylureido)-2-fluorophenoxy)-thieno[3,2-b]pyridin-2-yl)pyridin-3-yl)methyl)piperidin-4-yl)acelate]	< 50
COCCN(Cc1ccc(-c2cc3nccc(Oc4ccc(NC(=O)NC5CC5)cc4F)c3s2)nc1)C(=O)NC(C)C [Compound 190, 1-((6-(7-(4-cyclopropylaminocarbonylamino-2-fluorophenoxy)-thieno[3,2-b]pyridin-2-yl)pyridin-3-yl)methyl)-3-isopropyl-1-(2-methoxyethyl)urea]	< 50
O=C(Nc1ccc(Oc2ccnc3cc(-c4ccc(C(=O)O)cn4)sc23)c(F)c1)NC1CC1 [Compound 225, 6-(7-(4-(3-Cyclopropylureido)-2-fluorophenoxy)thieno[3,2-b]pyridin-2-yl)nicotinic acid]	< 50
O=C(Nc1ccc(Oc2ccnc3cc(-c4cn(CC(=O)N5CCCC5)nn4)sc23)c(F)c1)NC1CC1 [Compound 373]	< 50

Now from value to compound:

IC50 [nM]	Compound
< 50	N[C@H]1CCN(Cc2ccc(-c3cc4nccc(Oc5ccc(NC(=O)NC6CC6)cc5F)c4s3)nc2)C1 [Compound 495, (S)-1-(4-(2-(5-((3-aminopyrrolidin-1-yl)methyl)pyridin-2-yl)thieno[3,2-b]-pyridin-7-yloxy)-3-fluorophenyl)-3-cyclopropylurea]
< 50	CN(C)C/C=C/C(=O)N1CCN(Cc2ccc(-c3cc4nccc(Oc5ccc(NC(=O)NC6CC6)cc5F)c4s3)nc2)CC1 [Compound 547, (E)-1-cyclopropyl-3-(4-(2-(5-((4-(4-(dimethylamino)but-2-enoyl)piperazin-1-yl)methyl)pyridin-2-yl)thieno[3,2-b]pyridin-7-yloxy)-3-fluorophenyl)urea]
< 50	CNC1CCN(C(=O)c2ccc(-c3cc4nccc(Oc5ccc(NC(=O)NC6CC6)cc5F)c4s3)nc2)CC1 [Compound 399]
< 50	CC(C)(CN1CCN(Cc2ccc(-c3cc4nccc(Oc5ccc(NC(=O)NC6CC6)cc5F)c4s3)nc2)CC1)C(=O)O [Compound 575]
< 50	O=C(Nc1ccc(Oc2ccnc3cc(-c4ccc(CN5CCOCCOCCOCCOCC5)cn4)sc23)c(F)c1)NC1CC1 [Compound 533]
< 50	CN(C)[C@H]1CCN(C(=O)c2cc3nccc(Oc4ccc(NC(=O)NC5CC5)cc4F)c3s2)C1 [Compound 441]
< 50	COCCN(Cc1ccc(-c2cc3nccc(Oc4ccc(NC(=S)NC5CC5)cc4F)c3s2)nc1)C(C)=O [Compound 504, N-((6-(7-(4-(3-cyclopropylthioureido)-2-fluorophenoxy)thieno[3,2-b]pyridin-2-yl)pyridin-3-yl)methyl)-N-(2-methoxyethyl)acetamide]
< 50	O=C(O)CCCCN1CCN(Cc2ccc(-c3cc4nccc(Oc5ccc(NC(=O)NC6CC6)cc5F)c4s3)nc2)CC1 [Compound 518, 5-(4-((6-(7-(4-(3-cyclopropylureido)-2-fluorophenoxy)thieno[3,2-b]pyridin-2-yl)pyridin-3-yl)methyl)piperazin-1-yl)pentanoic acid]
≥ 250	O=C(O)CCNC(=O)NC1CCN(Cc2ccc(-c3cc4nccc(Oc5ccc(NC(=O)NC6CC6)cc5F)c4s3)nc2)CC1 [Compound 429]
50 to 100	CCNC(=O)N(CCOC)Cc1ccc(-c2cc3nccc(Oc4ccc(NC(=S)NC5CC5)cc4F)c3s2)nc1 [Compound 503, 1-((6-(7-(4-(3-cyclopropylthioureido)-2-fluorophenoxy)thieno[3,2-b]pyridin-2-yl)pyridin-3-yl)methyl)-3-ethyl-1-(2-methoxyethyl)urea]
< 50	NC1CCN(C(=O)Cn2cc(-c3cc4nccc(Oc5ccc(NC(=O)NC6CC6)cc5F)c4s3)nn2)CC1 [Compound 395]
< 50	COC(=O)CC(C)N1CCN(Cc2ccc(-c3cc4nccc(Oc5ccc(NC(=O)NC6CC6)cc5F)c4s3)nc2)CC1 (stereo not shown) [Compound 508, methyl 3-(4-((6-(7-(4-(3-cyclopropylureido)-2-fluorophenoxy)thieno[3,2-b]pyridin-2-yl)pyridin-3-yl)methyl)piperazin-1-yl)butanoate]
< 50	CN(CCO)C(=O)C1CCCN(Cc2ccc(-c3cc4nccc(Oc5ccc(NC(=O)NC6CC6)cc5F)c4s3)nc2)C1 (stereo not shown) [Compound 494, 1-((6-(7-(4-(3-cyclopropylureido)-2-fluorophenoxy)thieno[3,2-b]pyridin-2-yl)pyridin-3-yl)methyl)-N-(2-hydroxyethyl)-N-methylpiperidine-3-carboxamide]
< 50	CC(C)(C)OC(=O)N[C@@H]1CCN(Cc2ccc(-c3cc4nccc(Oc5ccc(NC(=O)NC6CC6)cc5F)c4s3)nc2)C1 [Compound 481, (R)-tert-butyl 1-((6-(7-(4-(3-cyclopropylureido)-2-fluorophenoxy)thieno[3,2-b]pyridin-2-yl)pyridin-3-yl)methyl)pyrrolidin-3-ylcarbamate]
100 to 250	CC(C)(C)C(=O)OC1CCN(C(=O)c2cc3nccc(Oc4ccc(NC(=O)NC5CC5)cc4F)c3s2)CC1 [Compound 455]
< 50	CC(=O)N[C@H]1CCN(C(=O)c2cc3nccc(Oc4ccc(NC(=O)NC5CC5)cc4F)c3s2)C1 [Compound 452]
